This is an account of results in patent US20080267948A1, “Croos-B Structure Binding Compounds” (priority 2005, published 2008).

Entries after “also recorded” stand apart in the source; their conditions may differ.

One experiment addresses T1, amyloid-β(1-40) E22Q (Homo sapiens, UniProt P05067, E693Q).
T1 construct: For similar ELISA's with DOVA and Aβ(1-40) E22Q, 1 μg/ml DOVA or Aβ was coated; purchased Peptide facility, Dutch Cancer Institute, Amsterdam; host or cells: synthetic peptide
As to the kind of experiment: ELISA binding of tPA to immobilized Aβ after pre-incubation with compounds. As to conditions: for % tPA binding (after compound incubation), Aβ: 1 μg/ml coated Aβ first exposed to 500 μg/ml compound, then 80 nM tPA, control = 100. As for the experimental part:
(§1) Compounds were now diluted 10× in PBS/0.1% Tween20 (500 μg/ml compound). […] With this approach a further selection of the compounds was achieved. Now, compounds that at least interact with HB-AGE are selected. With the selection, similar binding assays are performed with misfolded OVA and Aβ. Finally, concentration series of the selected compounds are used in the binding studies.

For experiment [1], the target named is T2, heat-denatured misfolded ovalbumin (DOVA) (Gallus gallus, UniProt P01012).
T2 construct: purchased Sigma A5503
T2 sequence (P01012 2-386 limits assumed): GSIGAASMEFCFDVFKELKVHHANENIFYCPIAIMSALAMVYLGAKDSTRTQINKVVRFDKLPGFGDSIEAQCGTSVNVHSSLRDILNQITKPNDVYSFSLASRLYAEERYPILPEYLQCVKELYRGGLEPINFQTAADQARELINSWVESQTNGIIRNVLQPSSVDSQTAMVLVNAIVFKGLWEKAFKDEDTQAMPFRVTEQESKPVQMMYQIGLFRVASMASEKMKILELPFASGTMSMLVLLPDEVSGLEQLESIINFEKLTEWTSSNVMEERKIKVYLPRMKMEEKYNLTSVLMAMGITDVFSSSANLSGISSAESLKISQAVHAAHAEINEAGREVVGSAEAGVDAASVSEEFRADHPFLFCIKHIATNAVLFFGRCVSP
As to the kind of experiment: ELISA binding of tPA to immobilized misfolded ovalbumin after pre-incubation with compounds. Details: species or system chicken. As to conditions: for activity at 500 µg/mL: read-out: % tPA binding (after compound incubation), DOVA; for influence on tPA binding to immobilized misfolded OVA: misfolded OVA first overlayed with compound (concentration series), then tPA. Here is the method:
as §1
(In general: In an ELISA, binding on a coated surface is turned into a signal by an enzyme label.)

Experiment [2] concerns the target T3, Hb-AGE (glucose-6-phosphate modified human haemoglobin) (Homo sapiens, UniProt P68871+P69905).
T3 construct: purchased Sigma-Aldrich H7379
The experiment can be described thus: ELISA binding of tPA to immobilized Hb-AGE, compounds co-incubated with tPA. As to conditions: compound mixed with tPA, control without compound = 100. Here is the method:
The small compound library is depicted in Tables 4-5. […] Binding experiments were performed in single wells per compound, in a duplicate experiment. Binding data obtained with this duplicate experiment was averaged.
• 1. […] Coat buffer in control wells. • 2. wash three times with wash buffer • 3. Block all wells with 300 μl 0.5*recommended concentration Roche blocking reagent for 30 minutes at room temperature, with agitation • 4. wash twice • 5. […] Incubate for 30 minutes at room temperature, with agitation • 7. wash five times with TBS/0.1% Tween20 • 8. […] Incubate for 30 minutes at room temperature, with agitation • 10. wash five times with TBS/0.1% Tween20 • 11. Fill wells with 3000× diluted horse raddish peroxidase-labeled polyclonal rabbit anti-mouse antibody (RAMPO, DAKOCytomation) • 12. Incubate for 20 minutes at room temperature, with agitation • 13. Wash five times with TBS/0.1% Tween20 • 14. Wash twice with PBS • 15. Stain with 100 μl TMB, stop with 50 μl 10% H2SO4 • 16. Read absorbance at 450 nm

For another experiment, the target named is T4, heat-denatured ovalbumin (Gallus gallus, UniProt P01012).
T4 construct: purchased Sigma A5503
T4 sequence (P01012 1-386): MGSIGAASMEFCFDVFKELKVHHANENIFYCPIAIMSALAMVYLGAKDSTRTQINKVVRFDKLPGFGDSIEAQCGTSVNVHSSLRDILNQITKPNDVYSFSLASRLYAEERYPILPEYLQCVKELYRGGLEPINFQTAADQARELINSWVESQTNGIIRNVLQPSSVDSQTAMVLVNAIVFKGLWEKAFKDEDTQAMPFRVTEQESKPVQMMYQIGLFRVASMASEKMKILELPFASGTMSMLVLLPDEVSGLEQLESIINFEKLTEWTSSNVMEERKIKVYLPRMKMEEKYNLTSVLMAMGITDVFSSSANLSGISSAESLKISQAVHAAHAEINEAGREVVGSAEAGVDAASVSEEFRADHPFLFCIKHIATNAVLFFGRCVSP
As to the kind of experiment: Thioflavin T fluorescence of ovalbumin and small compounds. Details: species or system chicken. As to conditions: 1 mg/ml compound, 1 mg/ml OVA. Here is the method: To establish the enhancement of Thioflavin T fluorescence by ovalbumin preparations, 90 μl of 25 μM ThT-solution in 50 mM Glycine buffer (pH 9.0) was added to 10 μl sample in duplicate wells of black 96-wells plates. Heat-denatured ovalbumin at 1 mg/ml in PBS with no addition, DMSO at a final concentration of 1% v/v, or 1 mg/ml of the compounds listed in Table 7, was used. Compound stocks are 100 mg/ml in DMSO. In addition, ovalbumin at 1 mg/ml with the same additions was first heat denatured and subsequently used in the fluorescence assay. Heat denaturation was according to the protocol given above. Fluorescence of duplicates was measured on a Thermo Fluoroskan Ascent 2.5, at 435 nm excitation and 485 nm emission wavelengths.

A further experiment concerns the target T5, ovalbumin (Gallus gallus, UniProt P01012).
T5 construct: purchased Sigma A5503
T5 sequence (P01012 1-386): T4 sequence (P01012 1-386)
As to the kind of experiment: Transmission electron microscopy of ovalbumin heated in the presence of small compounds. Details: species or system chicken. The settings on record: 1 mg/ml ovalbumin heated with 1 mg/ml compound. Here is the method:
For TEM analyses grids were prepared according to standard procedures. Ovalbumin samples at 1 mg/ml were applied to 100-mesh copper grids with carbon coated Formvar (Merck, Germany), and subsequently washed with PBS and H2O. Grids were applied to droplets of 2% (m/v) methylcellulose with 0.4% (m/v) uranylacetate pH 4. After a 2-minutes incubation grids were dried on a filter. Images were recorded at 80 kV, at suitable magnifications on a JEM-1200EX electron microscope (JEOL, Japan).

Another experiment addresses T6, tPA/plasminogen (Homo sapiens, UniProt P00750).
T6 construct: purchased Boehringer Ingelheim Actilyse
The experiment can be described thus: tPA/plasminogen activation by OVA heated in the presence of compounds (substrate PNAPEP1751). The format is biochemical. The settings on record: 25 μg/ml OVA, 25 μg/ml compound, […] DMSO. Here is the method:
Heated OVA, either in PBS/1% DMSO (positive control), or in the same buffer in the presence of 1 mg/ml of the compounds, was used 40-fold diluted in the assay. Negative control was buffer without OVA. […] In addition, it was assessed whether the compounds interfere with absorbance readings at 405 nm, with converted chromogenic substrate. […] The yellow solution is divided over wells of an ELISA plate. […] Signals are compared and related to the control.

A further experiment deals with T7, Hb-AGE (Homo sapiens, UniProt P68871+P69905).
T7 construct: purchased Sigma-Aldrich H7379
The experiment can be described thus: ELISA binding of tPA to immobilized Hb-AGE after pre-incubation with compounds. As to conditions: Hb-AGE first overlayed with compound (concentration series), then tPA. Here is the method:
Compounds were now diluted 10× in PBS/0.1% Tween20 (500 μg/ml compound). […] With the selection, similar binding assays are performed with misfolded OVA and Aβ. Finally, concentration series of the selected compounds are used in the binding studies.

T3 sequence (P69905 2-142 limits assumed): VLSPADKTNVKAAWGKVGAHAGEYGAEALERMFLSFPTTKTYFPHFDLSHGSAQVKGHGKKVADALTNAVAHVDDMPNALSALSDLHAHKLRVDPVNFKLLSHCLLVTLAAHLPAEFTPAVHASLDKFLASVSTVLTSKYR
T3 sequence (P68871 2-147 limits assumed): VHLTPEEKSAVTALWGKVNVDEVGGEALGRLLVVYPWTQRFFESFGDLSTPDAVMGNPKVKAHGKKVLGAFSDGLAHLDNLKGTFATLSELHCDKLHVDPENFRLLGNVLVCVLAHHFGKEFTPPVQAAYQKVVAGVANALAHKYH
T1 sequence (P05067 672-711 E693Q): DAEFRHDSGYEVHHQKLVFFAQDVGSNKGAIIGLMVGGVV
T7 sequence (P69905 2-142 limits assumed): as the sequence (P69905 2-142 limits assumed) above
T7 sequence (P68871 2-147 limits assumed): as the sequence (P68871 2-147 limits assumed) above
T6 sequence (P00750 36-562): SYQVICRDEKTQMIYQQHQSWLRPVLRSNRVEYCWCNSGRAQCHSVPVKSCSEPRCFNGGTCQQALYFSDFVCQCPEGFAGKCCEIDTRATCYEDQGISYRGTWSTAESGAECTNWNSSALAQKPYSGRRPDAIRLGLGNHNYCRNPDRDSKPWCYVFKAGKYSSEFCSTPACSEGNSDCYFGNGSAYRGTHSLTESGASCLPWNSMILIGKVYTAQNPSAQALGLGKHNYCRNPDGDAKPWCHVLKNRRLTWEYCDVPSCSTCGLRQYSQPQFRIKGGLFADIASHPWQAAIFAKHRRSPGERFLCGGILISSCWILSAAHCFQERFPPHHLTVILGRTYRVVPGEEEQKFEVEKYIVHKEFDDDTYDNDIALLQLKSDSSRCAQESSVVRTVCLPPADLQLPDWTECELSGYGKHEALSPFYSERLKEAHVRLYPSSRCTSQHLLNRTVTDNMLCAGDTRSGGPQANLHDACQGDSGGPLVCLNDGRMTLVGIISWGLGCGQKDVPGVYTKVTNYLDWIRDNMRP

In the case of `COc1cc2c(cc1OC)-c1c(OC)c(OC)cc3ccnc(c13)C2=O` [compound 204, 7-Oxoglaucine], the “% tPA binding (after compound incubation), Aβ” value (“% tPA binding … Aβ” for short) on amyloid-β(1-40) E22Q is on record as 55%. Further, the activity at 500 µg/mL in experiment [1] was found to be 80%. Further, in experiment [2], the “% tPA binding to Hb-AGE (co-incubation)” value is given as 70%.
On to `CN1CCc2cccc3c2C1Cc1ccc(O)c(O)c1-3` (centres unmarked) [compound 85], for which the activity at 500 µg/mL in experiment [1] is 135%.
With `COc1ccc2c(c1O)-c1c(OC)c(OC)cc3c1[C@H](C2)N(C)CC3` [compound 138], the activity at 500 µg/mL in experiment [1] stood at 65%. In experiment [2], the “% tPA binding to Hb-AGE (co-incubation)” value is 50%.
Regarding `COc1cc2c(cc1OC)-c1c(OC)c(OC)c(C=O)c3c1[C@H](C2)N(C)CC3` [compound 213, dehydroglaucine derivative], on amyloid-β(1-40) E22Q, the “% tPA binding … Aβ” value came to 210%. Besides, the activity at 500 µg/mL in experiment [1] amounted to 105%. The “% tPA binding to Hb-AGE (co-incubation)” value in experiment [2] is on record as 60%.
As for `Cc1ccc(C(=O)[C@@H]2[C@H]3C4COC(O4)C(=O)[C@@H]3[C@H]3C=Cc4ccccc4N32)cc1` (some centres unmarked) [compound 15], on amyloid-β(1-40) E22Q (Aβ first overlayed with compound (concentration series), then tPA), the “influence on tPA binding to immobilized Aβ” value is on record as “Inhibited tPA binding to immobilized misfolded protein (Aβ)”. On heat-denatured ovalbumin, the “influence on Thioflavin T fluorescence with misfolded OVA” value is “Inhibition on Thioflavin T fluorescence with misfolded OVA”.
`COc1cc2c(cc1O)-c1c(O)c(OC)cc3c1[C@H](C2)N(C)CC3` [compound 203, Bracteoline]: the “% tPA binding … Aβ” value on amyloid-β(1-40) E22Q is on record as 85%. Further, the activity at 500 µg/mL in experiment [1] amounted to 105%. Further, the “% tPA binding to Hb-AGE (co-incubation)” value in experiment [2] is 55%.
Consider `COc1cc2c(cc1O)CC1c3c(cc(O)c(OC)c3-2)CCN1C` (centres unmarked) [compound 53], for which the “% tPA binding to Hb-AGE (co-incubation)” value in experiment [2] amounted to 55%.
Same read-out and setting: to `COc1cc2c(cc1OC)-c1c(OC)c(OC)c(CO)c3c1C(C2)N(C)CC3` (centres unmarked) [compound 71] belongs 50%.
For `COC(=O)[C@H]1[C@H]2C[C@H]3c4[nH]c5ccccc5c4CCN3C[C@@H]2CC[C@@H]1O` [compound 126, corynanthine], the “influence on tPA binding to immobilized misfolded OVA” value in experiment [1] was “Stimulated tPA binding to immobilized misfolded protein”. At ovalbumin, the “appearance of ovalbumin heated in the presence of compound on TEM image” value was “No protein visible”.
`COc1cc2c(Cc3c4c5c(cc(OC)c(OC)c5c5c(OC)c(OC)ccc35)CCN4C)c3c4c(cc(OC)c(OC)c4c2cc1OC)CCN3C` [compound 210, dehydroglaucine derivative]: the “% tPA binding … Aβ” value at amyloid-β(1-40) E22Q was found to be 30%. The activity at 500 µg/mL in experiment [1] was determined as 90%. In addition, the “% tPA binding to Hb-AGE (co-incubation)” value in experiment [2] is on record as 80%.
With `Cn1ccc(O)c(C#N)c1=O` [compound 51], the “influence on tPA/plasminogen activation by OVA pre-heated in the presence of compound” value on tPA/plasminogen is “Inhibition of tPA/plasminogen activation by OVA pre-heated”. Also, the “influence on tPA binding to immobilized misfolded OVA” value in experiment [1] is “Stimulated tPA binding to immobilized misfolded protein”.
Turning to `Br.CC(=O)N1C=C(C2CCCCN2)CCC1` (centres unmarked) [compound 217, Ammophedrine HBr], the “influence on tPA binding to immobilized misfolded OVA” value in experiment [1] is on record as “Inhibited tPA binding to immobilized misfolded protein (Hb-”. The “influence on tPA binding to immobilized Hb-AGE” value at Hb-AGE is “Inhibited tPA binding to immobilized misfolded protein (Hb-”. Besides, the “appearance of ovalbumin heated in the presence of compound on TEM image” value on ovalbumin (HBr) is listed as “less OVA aggregates after heating in the presence of the; also recorded: Only small amorphous aggregates like Control”.
